Data: US11834517B2, “Branched peptides for enzymatic assembly and mitochondria drug delivery” (BRANDEIS UNIVERSITY, priority 2017, dated 2023)
Peptide text beside a SMILES is read from it. * marks the point of attachment. X2 = O=C(Cc1ccc2ccccc2c1)N[C@H](Cc1ccccc1)C(=O)N[C@H](Cc1ccccc1)C(=O)N[C@H](CCCCN*)C(=O)NCCNc1ccc([N+](=O)[O-])c2nonc12; X3 = O=C(Cc1ccc2ccccc2c1)N[C@@H](Cc1ccccc1)C(=O)N[C@@H](Cc1ccccc1)C(=O)N[C@@H](CCCCN*)C(=O)N[C@@H](Cc1ccc(O)cc1)C(=O)O; X1 = O=C(Cc1ccc2ccccc2c1)N[C@H](Cc1ccccc1)C(=O)N[C@H](Cc1ccccc1)C(=O)N[C@H](CCCCN*)C(=O)N[C@H](Cc1ccc(O)cc1)C(=O)O

Key:
HeLa cells [1] = assay: Uptake and mitochondrial localization of NBD-Mito-Flag in HeLa cells in the presence of inhibitors; format: cell-based, human; conditions: NBD-Mito-Flag 200 μM; for uptake of NBD-Mito-Flag (intracellular fluorescence): 2 h, with endocytosis inhibitor (CPZ 5 μM); for mitochondrial localization of NBD-Mito-Flag: HeLa, with inhibitor (chloroquine 10 μM; erastin; Ndz 10 μM, 1 h pretreatment; FCCP pretreatment)
Protocol: FIG. 26B is a panel of confocal fluorescence images of HeLa cells incubated with NBD-Mito-Flag (200 μM) and chloroquine (10 μM). […] FIG. 26D is a panel of TEM images of mitochondria isolated from HeLa, HEK293 and HS-5 cells incubated with 200 μM Mito-Flag for 24 h. […] FIG. 26E and FIG. 26F are fluorescent images of NBD-Mito-Flag and RFP-LAMP1 in ENTK-knockdown HeLa cells. […] FIG. 26G-H are fluorescent images of the HeLa cells incubated with NBD-Mito-Flag (200 μM, 2 h) (FIG. 26G) or the mixture of virus (RFP-LAMP1) and Mito-Flag (200 μM, 24 h) (FIG. 26H) in the presence of erastin of different concentrations. […] FIG. 26I is a panel of fluorescent images of HeLa cells incubated with NBD-Mito-Flag (200 μM, 2 h) after the pretreatment by Ndz (10 μM, 1 h).
Intracellular Fluorescence Quantification: Cells were seeded in petri dishes and incubated in standard condition for 12 h before experiment. After being treated by the condition of interest, all cells were washed by PBS (3 time for 5 min). After the washing step, cells were detached from the dishes using trypsin. The trypsin was removed by centrifuge and washing with PBS. The cell suspensions (in PBS) were diluted to 10^5 cell/mL. 100 μL diluted cell suspension was added in a 96-well plate (at least 5 wells per sample). The intracellular fluorescence intensity was immediately determined using a DTX 880 Multimode Detector (Beckman Coulter Inc.). The experiments were repeated, and the intracellular fluorescence intensity was averaged (n>3).

Saos-2 cell = assay: Cell viability after GFP-TP53 plasmid transfection, Saos-2; format: cell-based, human; conditions: Saos-2, single agent: free GFP-TP53 plasmid or Mito-Flag
Protocol: (§1) FIGS. 24A-G show how perimitochondrial ENS causes mitochondrial transgene expression to induce mitophagy or apoptosis. FIG. 24A is a Western blot analysis of FUNDC1 and LC3B levels in the mitochondria fraction and cytosolic fraction, respectively, of HeLa cells incubated with conditions of interest. VDAC1 serves as mitochondria protein loading control. FUNDC1 plasmid: 5 μg/mL, Mito-Flag: 200 μM, Time: 2 days. FIG. 24B is a panel of fluorescent images showing that Mito-Flag perimitochondrial ENS delivering FUNDC1 gene into mitochondria to induce mitochondrial morphology changes within 2 days. FIG. 24C is a panel of fluorescent images showing that the detection of mitophagy via immunofluorescent staining of autophagy marker, LC3 (2nd day). FIG. 24D is a panel of fluorescent images of HeLa cells incubated with free GFP-TP53 plasmid and the plasmid mixed with Mito-Flag (200 μM, 24 h). FIG. 24E is a graph illustrating cell viability of HeLa, Saos-2, and HS-5 cells incubated with free GFP-TP53 plasmid (5 μg/mL), Mito-Flag (200 μM), and the plasmid (5 μg/mL) mixed with Mito-Flag (200 μM, 3rd day). Data are presented as mean±standard deviation. FIG. 24F is a panel of fluorescent images showing an apoptosis analysis on HeLa and HS-5 cells. […]

HS-5 cells = assay: Cell viability after GFP-TP53 plasmid transfection, HS-5; format: cell-based, human; conditions: HS-5, GFP-TP53 plasmid (5 μg/mL) mixed with Mito-Flag (200 μM), 3rd day
Protocol: as §1

HeLa cells [2] = assay: Cell viability / cytotoxicity (MTT) assay, HeLa; format: cell-based
HeLa cells [3] = assay: Cell viability after GFP-TP53 plasmid transfection, HeLa; format: cell-based, human; conditions: single agent: free GFP-TP53 plasmid (5 μg/mL) or Mito-Flag (200 μM), 3rd day
Protocol: as §1

MT-CO1-KO cancer cells = assay: Sensitivity of MT-CO1-KO cancer cells to chemotherapeutic agents; format: cell-based, human; conditions: MT-CO1 knocked out via Mito-Flag and CRISPR-MT-CO1 plasmid

Row | Compound | mitochondrial localization of NBD-Mito-Flag (HeLa cells [1]) | cytotoxicity of branched peptide alone (HeLa cells [2]) | cytotoxicity of branched peptide alone (U87MG cells) | further results
1 | CN(C)CCCN1c2ccccc2Sc2ccc(Cl)cc21 [chlorpromazine] | – | – | – | uptake of NBD-Mito-Flag (intracellular fluorescence) (HeLa cells [1]): significantly decreases the intracellular fluorescence
2 | COC(=O)Nc1nc2ccc(C(=O)c3cccs3)cc2[nH]1 [nocodazole] | weakened mitochondrial fluorescence | – | – | –
3 | N#CC(C#N)=NNc1ccc(OC(F)(F)F)cc1 [FCCP, p-trifluoromethoxy carbonylcyanide phenylhydrazone] | diminishes the mitochondria-specific localization | – | – | –
4 | CCN(CC)CCCC(C)Nc1ccnc2cc(Cl)ccc12 (stereo not drawn) [chloroquine] | significantly reduced mitochondrial localization | – | – | –
5 | NCCCC[C@H](NC(=O)[C@H](CC(=O)O)NC(=O)[C@H](CC(=O)O)NC(=O)[C@H](CC(=O)O)NC(=O)[C@H](CC(=O)O)NC(=O)[C@H](CCCCN)NC(=O)[C@H](Cc1ccc(O)cc1)NC(=O)[C@@H](N)CC(=O)O)C(=O)NCC(=O)NCCCC[C@@H](NC(=O)[C@@H](Cc1ccccc1)NC(=O)[C@@H](Cc1ccccc1)NC(=O)Cc1ccc2ccccc2c1)C(=O)N[C@H](Cc1ccc(O)cc1)C(=O)O [D-2 ? FLAG] (H-DYKDDDDKG-X1) | – | minimal cytotoxicity | minimal cytotoxicity | cell viability (Saos-2 cell): innoxious; cell viability (HS-5 cells): neither free GFP-TP53 plasmid nor the mixture of Mito-Flag and GFP-TP53 plasmid impairs the viability of HS-5 cells; cell viability (HeLa cells [3]): hardly causes cell death
6 | M-β-CD | – | – | – | uptake of NBD-Mito-Flag (intracellular fluorescence) (HeLa cells [1]): hardly affects the uptake
7 | N.N.[Cl][Pt][Cl] [cisplatin] | – | – | – | sensitivity of MT-CO1-KO cancer cells versus wild type (MT-CO1-KO cancer cells): more sensitive
8 | NCCCC[C@H](NC(=O)[C@H](CC(=O)O)NC(=O)[C@H](CC(=O)O)NC(=O)[C@H](CC(=O)O)NC(=O)[C@H](CC(=O)O)NC(=O)[C@H](CCCCN)NC(=O)[C@H](Cc1ccc(O)cc1)NC(=O)[C@@H](N)CC(=O)O)C(=O)NCC(=O)NCCCC[C@H](NC(=O)[C@H](Cc1ccccc1)NC(=O)[C@H](Cc1ccccc1)NC(=O)Cc1ccc2ccccc2c1)C(=O)N[C@@H](Cc1ccc(O)cc1)C(=O)O [L-2 ? FLAG] (H-DYKDDDDKG-X3) | – | minimal cytotoxicity | minimal cytotoxicity | –
9 | NCCCC[C@H](NC(=O)[C@H](CC(=O)O)NC(=O)[C@H](CC(=O)O)NC(=O)[C@H](CC(=O)O)NC(=O)[C@H](CC(=O)O)NC(=O)[C@H](CCCCN)NC(=O)[C@H](Cc1ccc(O)cc1)NC(=O)[C@@H](N)CC(=O)O)C(=O)NCC(=O)NCCCC[C@@H](NC(=O)[C@@H](Cc1ccccc1)NC(=O)[C@@H](Cc1ccccc1)NC(=O)Cc1ccc2ccccc2c1)C(=O)NCCNc1ccc([N+](=O)[O-])c2nonc12 [D-1 ? FLAG] (H-DYKDDDDKG-X2) | – | little cytotoxicity | little cytotoxicity | –
